Structures are written as SMILES.

The text below walks through data of publication PMC3351969 (European Journal of Medical Research, 2009).

The test system of series [1] is cytochrome p450 3A4 (CYP3A4). In words: monoethylglycinexylidide. The class given is in vivo, human.
A short description of series [2]: indocyanine green clearance. The class given is in vivo, human. The settings on record: HIV-patients, before and 6 months after initiation of HAART.

Regarding `CCNCC(=O)Nc1c(C)cccc1C` [MEGX, monoethylglycinexylidide], the MEGX test in series [1] (HIV-patients treated with various ART combinations, p = 0.23 vs healthy controls) came to 49.9 ± 25.48 µg/L; in series [1] (healthy controls without medication) it was 66.29 ± 38.55 µg/L.
Regarding `CC1(C)C(/C=C/C=C/C=C/C=C2\N(CCCCS(=O)(=O)O)c3ccc4ccccc4c3C2(C)C)=[N+](CCCCS(=O)(=O)[O-])c2ccc3ccccc3c21` [indocyanine green], the “indocyanine green clearance in relation to anti-retroviral regimens” value in series [2] is recorded as “no correlation could be found”.
